From article PMC5816668, “Insights into the inhibitory mechanisms of NADH on the αγ heterodimer of human NAD-dependent isocitrate dehydrogenase” (Scientific Reports, 2018)
Read-outs that look alike come from different tables or passages of the source.

Key:
[1] = biological target: T1, αγ heterodimer of human NAD-IDH (Homo sapiens, UniProt P50213+P51553); assay: ITC; assay type: binding; conditions: read-out: K d (μ M) ^a
T1 construct: gene IDH3A; E. coli BL21(DE3) Codon-Plus co-expression from pQlinkN-α-γ-tev-His6; C-terminal His6 of gamma cut with TEV protease; alpha 37 kDa, gamma 39 kDa; heterodimer
T1 sequence (P50213 28-366): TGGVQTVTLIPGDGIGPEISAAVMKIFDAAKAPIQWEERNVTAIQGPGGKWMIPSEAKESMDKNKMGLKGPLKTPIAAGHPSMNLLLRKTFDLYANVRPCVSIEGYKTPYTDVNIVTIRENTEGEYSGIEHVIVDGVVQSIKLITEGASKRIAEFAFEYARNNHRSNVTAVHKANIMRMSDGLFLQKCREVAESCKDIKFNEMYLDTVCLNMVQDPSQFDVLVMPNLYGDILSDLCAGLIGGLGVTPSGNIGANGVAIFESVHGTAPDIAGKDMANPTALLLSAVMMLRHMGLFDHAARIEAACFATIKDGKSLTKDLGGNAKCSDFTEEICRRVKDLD
T1 sequence (P51553 40-393): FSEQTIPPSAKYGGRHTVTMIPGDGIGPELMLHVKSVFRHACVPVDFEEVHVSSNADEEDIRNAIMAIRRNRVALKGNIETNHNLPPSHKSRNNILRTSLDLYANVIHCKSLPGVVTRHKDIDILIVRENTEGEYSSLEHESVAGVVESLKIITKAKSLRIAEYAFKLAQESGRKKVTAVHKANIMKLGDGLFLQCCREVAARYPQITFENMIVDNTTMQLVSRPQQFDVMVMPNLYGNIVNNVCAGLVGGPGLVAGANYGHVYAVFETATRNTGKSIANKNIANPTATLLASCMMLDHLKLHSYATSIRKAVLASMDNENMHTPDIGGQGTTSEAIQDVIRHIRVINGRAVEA
Source text: ITC on αγ heterodimer of human NAD-IDH

[2] = biological target: T2, αβ heterodimer of human NAD-IDH (Homo sapiens, UniProt P50213); assay: ITC; assay type: binding; conditions: 50 mM HEPES pH 7.4, 200 mM NaCl, 20 °C, read-out: K d (μ M) ^a
T2 construct: gene IDH3A; alpha 37 kDa, beta 39 kDa; heterodimer
T2 sequence (O43837 35-385 partner, one chain of several): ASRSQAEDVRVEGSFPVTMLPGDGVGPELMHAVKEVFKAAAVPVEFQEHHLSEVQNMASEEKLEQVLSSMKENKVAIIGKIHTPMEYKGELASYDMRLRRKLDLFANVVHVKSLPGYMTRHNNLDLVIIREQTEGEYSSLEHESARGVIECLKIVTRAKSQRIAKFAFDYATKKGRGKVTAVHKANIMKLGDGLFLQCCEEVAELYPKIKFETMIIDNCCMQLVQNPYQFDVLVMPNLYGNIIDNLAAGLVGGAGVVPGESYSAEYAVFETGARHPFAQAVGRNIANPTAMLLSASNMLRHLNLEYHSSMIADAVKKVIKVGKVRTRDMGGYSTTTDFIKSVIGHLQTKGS
Source text: ITC on αβ heterodimer of human NAD-IDH

[3] = biological target: T1, αγ heterodimer of human NAD-IDH; assay: NADH formation at […] nm; assay type: biochemical
[4] = biological target: T3, α2βγ heterotetramer of human NAD-IDH (Homo sapiens, UniProt P50213+P51553); assay: NADH formation at […] nm; assay type: biochemical; conditions: 33 mM Tris-acetate pH 7.4, 2 mM MnCl2, 20 mM DL-isocitrate, 1 mM NAD+, 25 °C
T3 construct: gene IDH3A; alpha 37 kDa, beta 39 kDa, gamma 39 kDa
T3 sequence (O43837 35-385 partner, one chain of several): as above

[5] = biological target: T3, α2βγ heterotetramer of human NAD-IDH; assay: ITC; assay type: binding; conditions: 50 mM HEPES pH 7.4, 200 mM NaCl, 20 °C; single set of sites fit, n 2.53; read-out: K d (μ M) ^a
Source text: ITC on α2βγ heterotetramer of human NAD-IDH

[6] = biological target: T2, αβ heterodimer of human NAD-IDH; assay: NADH formation at […] nm; assay type: biochemical; conditions: 33 mM Tris-acetate pH 7.4, 20 mM DL-isocitrate, 1 mM NAD+, 25 °C

| Kd [1] | Kd ([2]; single set of sites fit, n 1.26) | IC50 [3] | IC50 [4] | Kd [5] | IC50 [6] | Kd ([2]; no isocitrate, n 1.14) | Compound |
| --- | --- | --- | --- | --- | --- | --- | --- |
| 109 ± 19.5 µM | 4.6 ± 0.7 µM | 82.7 ± 6 µM | 78.5 ± 5.4 µM | 46.3 ± 6.5 µM | 94.9 ± 7.8 µM |  | NC(=O)C1=CN([C@@H]2O[C@H](COP(=O)(O)OP(=O)(O)OC[C@H]3O[C@@H](n4cnc5c(N)ncnc54)[C@H](O)[C@@H]3O)[C@@H](O)[C@H]2O)C=CC1 [NADH] |
|  |  |  |  |  |  | 268 ± 28.4 µM | NC(=O)c1ccc[n+]([C@@H]2O[C@H](COP(=O)(O)OP(=O)(O)OC[C@H]3O[C@@H](n4cnc5c(N)ncnc54)[C@H](O)[C@@H]3O)[C@@H](O)[C@H]2O)c1 [NAD^+] |
